Tested on: NHBE cells
Test: Biolog metabolic array: substrate use by NHBE cells with or without CA09 infection
Assay type: cell-based, human
Settings: for Substrate use, 590 nm absorbance normalized to zero hour, 0 hr: Biolog PMM2, 0 hr; for Substrate use, 590 nm absorbance normalized to zero hour, 1 hr: Biolog PMM2, 1 hr; for Substrate use, 590 nm absorbance normalized to zero hour, 5 hr: Biolog PMM2, 5 hr; for Substrate use, 590 nm absorbance normalized to zero hour, 7 hr: Biolog PMM2, 7 hr
[1] = Control (uninfected) NHBE cells
[2] = Virus (CA09-infected, MOI 1) NHBE cells
[3] = Virus: CA09-infected NHBE cells, MOI 1, Biolog PMM2

Row | SMILES | 590 nm absorbance normalized to zero hour (substrate use), 0 hr [1] | 590 nm absorbance normalized to zero hour (substrate use), 1 hr [1] | 590 nm absorbance normalized to zero hour (substrate use), 3 hr [1] | 590 nm absorbance normalized to zero hour (substrate use), 4 hr [1] | 590 nm absorbance normalized to zero hour (substrate use), 6 hr [1] | 590 nm absorbance normalized to zero hour (substrate use), 8 hr [1] | 590 nm absorbance normalized to zero hour (substrate use), 9 hr [1] | 590 nm absorbance normalized to zero hour (substrate use), 10 hr [1] | 590 nm absorbance normalized to zero hour (substrate use), 11 hr [1] | Substrate use, 590 nm absorbance normalized to zero hour, 0 hr [1] | Substrate use, 590 nm absorbance normalized to zero hour, 1 hr [1] | Substrate use, 590 nm absorbance normalized to zero hour, 5 hr [1] | Substrate use, 590 nm absorbance normalized to zero hour, 7 hr [1] | 590 nm absorbance normalized to zero hour (substrate use), 0 hr [2] | 590 nm absorbance normalized to zero hour (substrate use), 1 hr [2] | 590 nm absorbance normalized to zero hour (substrate use), 2 hr [2] | 590 nm absorbance normalized to zero hour (substrate use), 3 hr [2] | 590 nm absorbance normalized to zero hour (substrate use), 4 hr [2] | 590 nm absorbance normalized to zero hour (substrate use), 5 hr [2] | 590 nm absorbance normalized to zero hour (substrate use), 6 hr [2] | further results
1 | NCCCC(=O)O [g-Amino Butyric Acid] | 1.00 | 1.25 | 1.42 | 1.47 | 3.94 | 1.09 | 2.20 | 1.13 | 2.55 | 1.00 | 1.25 | 1.52 | 1.05 | 1.00 | 1.68 | 2.39 | 2.83 | 2.96 | 3.40 | 3.56 | 590 nm absorbance normalized to zero hour (substrate use), 7 hr [2]: 3.70; 590 nm absorbance normalized to zero hour (substrate use), 8 hr [2]: 3.84; 590 nm absorbance normalized to zero hour (substrate use), 9 hr [2]: 3.99; 590 nm absorbance normalized to zero hour (substrate use), 10 hr [2]: 3.94; 590 nm absorbance normalized to zero hour (substrate use), 11 hr [2]: 3.74; 590 nm absorbance normalized to zero hour (substrate use), 0 hr [3]: 1.00; 590 nm absorbance normalized to zero hour (substrate use), 1 hr [3]: 1.68; 590 nm absorbance normalized to zero hour (substrate use), 2 hr [3]: 2.39; 590 nm absorbance normalized to zero hour (substrate use), 3 hr [3]: 2.83; 590 nm absorbance normalized to zero hour (substrate use), 4 hr [3]: 2.96; 590 nm absorbance normalized to zero hour (substrate use), 5 hr [3]: 3.40; 590 nm absorbance normalized to zero hour (substrate use), 6 hr [3]: 3.56; 590 nm absorbance normalized to zero hour (substrate use), 7 hr [3]: 3.70; 590 nm absorbance normalized to zero hour (substrate use), 8 hr [3]: 3.84; 590 nm absorbance normalized to zero hour (substrate use), 9 hr [3]: 3.99; 590 nm absorbance normalized to zero hour (substrate use), 10 hr [3]: 3.94; 590 nm absorbance normalized to zero hour (substrate use), 11 hr [3]: 3.74
2 | C[C@@H](O)CC(=O)O [b-Hydroxy-Butyric Acid] | 1.00 | 1.65 | 2.16 | 2.31 | 2.37 | 2.68 | 2.90 | 3.02 | 7.04 | 1.00 | 1.65 | 2.75 | 2.49 | 1.00 | 1.78 | 2.31 | 2.61 | 2.77 | 3.16 | 3.34 | 590 nm absorbance normalized to zero hour (substrate use), 2 hr [1]: 2.08; 590 nm absorbance normalized to zero hour (substrate use), 7 hr [2]: 3.47; 590 nm absorbance normalized to zero hour (substrate use), 8 hr [2]: 3.62; 590 nm absorbance normalized to zero hour (substrate use), 9 hr [2]: 3.79; 590 nm absorbance normalized to zero hour (substrate use), 10 hr [2]: 3.87; 590 nm absorbance normalized to zero hour (substrate use), 11 hr [2]: 3.29; 590 nm absorbance normalized to zero hour (substrate use), 0 hr [3]: 1.00; 590 nm absorbance normalized to zero hour (substrate use), 1 hr [3]: 1.78; 590 nm absorbance normalized to zero hour (substrate use), 2 hr [3]: 2.31; 590 nm absorbance normalized to zero hour (substrate use), 3 hr [3]: 2.61; 590 nm absorbance normalized to zero hour (substrate use), 4 hr [3]: 2.77; 590 nm absorbance normalized to zero hour (substrate use), 5 hr [3]: 3.16; 590 nm absorbance normalized to zero hour (substrate use), 6 hr [3]: 3.34; 590 nm absorbance normalized to zero hour (substrate use), 7 hr [3]: 3.47; 590 nm absorbance normalized to zero hour (substrate use), 8 hr [3]: 3.62; 590 nm absorbance normalized to zero hour (substrate use), 9 hr [3]: 3.79; 590 nm absorbance normalized to zero hour (substrate use), 10 hr [3]: 3.87; 590 nm absorbance normalized to zero hour (substrate use), 11 hr [3]: 3.29
3 | CC(O)C(=O)O [L-Lactic Acid (DL)] | 1.00 | 1.56 | 2.57 | 2.66 | 1.75 | 3.21 | 3.56 | 3.63 | 4.70 | 1.00 | 1.56 | 3.09 | 2.97 | 1.00 | 1.33 | 1.66 | 2.04 | 2.11 | 2.48 | 2.68 | 590 nm absorbance normalized to zero hour (substrate use), 2 hr [1]: 2.01; 590 nm absorbance normalized to zero hour (substrate use), 7 hr [2]: 2.86; 590 nm absorbance normalized to zero hour (substrate use), 8 hr [2]: 3.04; 590 nm absorbance normalized to zero hour (substrate use), 9 hr [2]: 3.36; 590 nm absorbance normalized to zero hour (substrate use), 10 hr [2]: 3.49; 590 nm absorbance normalized to zero hour (substrate use), 11 hr [2]: 3.91; 590 nm absorbance normalized to zero hour (substrate use), 0 hr [3]: 1.00; 590 nm absorbance normalized to zero hour (substrate use), 1 hr [3]: 1.33; 590 nm absorbance normalized to zero hour (substrate use), 2 hr [3]: 1.66; 590 nm absorbance normalized to zero hour (substrate use), 3 hr [3]: 2.04; 590 nm absorbance normalized to zero hour (substrate use), 4 hr [3]: 2.11; 590 nm absorbance normalized to zero hour (substrate use), 5 hr [3]: 2.48; 590 nm absorbance normalized to zero hour (substrate use), 6 hr [3]: 2.68; 590 nm absorbance normalized to zero hour (substrate use), 7 hr [3]: 2.86; 590 nm absorbance normalized to zero hour (substrate use), 8 hr [3]: 3.04; 590 nm absorbance normalized to zero hour (substrate use), 9 hr [3]: 3.36; 590 nm absorbance normalized to zero hour (substrate use), 10 hr [3]: 3.49; 590 nm absorbance normalized to zero hour (substrate use), 11 hr [3]: 3.91
